Read-outs that look alike come from different tables or passages of the source.
Tests used:
Test in all cases: Post-emergence efficacy, glasshouse, evaluated after 13 days
Type in all cases: in vivo
[1] = test system: Lolium perenne (LOLPE); conditions: Lolium perenne, 312 h, read-out: Control of weed species LOLPE (100=total damage to plant; 0=no damage to plant)
Outline: (§1)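 Plants grown 14 days in glasshouse (24/16° C., 14 h light, 65% humidity), then sprayed post-emergence with compound formulated in IF50 and diluted in 0.25% or 1% Empicol ESC70 + 1% ammonium sulphate. Damage scored after 13 days (0 none to 100 total).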

[2] = test system: Chenopodium album (CHEAL); conditions: Chenopodium album, 312 h, read-out: Control of weed species CHEAL (100=total damage to plant; 0=no damage to plant)
Outline: as §1

[3] = test system: Euphorbia heterophylla (EPHHL); conditions: Euphorbia heterophylla, 312 h, read-out: Control of weed species EPHHL (100=total damage to plant; 0=no damage to plant)
Outline: as §1

[4] = test system: Setaria faberi (SETFA); conditions: Setaria faberi, 312 h, read-out: Control of weed species SETFA (100=total damage to plant; 0=no damage to plant)
Outline: as §1

[5] = test system: Digitaria sanguinalis (DIGSA); conditions: Digitaria sanguinalis, 312 h, read-out: Control of weed species DIGSA (100=total damage to plant; 0=no damage to plant)
Outline: as §1

[6] = test system: Ipomoea hederacea (IPOHE); conditions: Ipomoea hederacea, 312 h, read-out: Control of weed species IPOHE (100=total damage to plant; 0=no damage to plant)
Outline: as §1

[7] = test system: Amaranthus palmeri (AMAPA); conditions: Amaranthus palmeri, 312 h, read-out: Control of weed species AMAPA (100=total damage to plant; 0=no damage to plant)
Outline: as §1

[8] = test system: Eleusine indica (ELEIN); conditions: Eleusine indica, 312 h, read-out: Control of weed species ELEIN (100=total damage to plant; 0=no damage to plant)
Outline: as §1

[9] = test system: Echinochloa crus-galli (ECHCG); conditions: Echinochloa crus-galli, 312 h, read-out: Control of weed species ECHCG (100=total damage to plant; 0=no damage to plant)
Outline: as §1

[10] = post-emergence application, 500 g/Ha, evaluated after 13 days

SMILES	pest or weed control at 500 g/ha [1, 10]	pest or weed control at 500 g/ha [2, 10]	pest or weed control at 500 g/ha [3, 10]	pest or weed control at 500 g/ha [4, 10]	pest or weed control at 500 g/ha [5, 10]	pest or weed control at 500 g/ha [6, 10]	pest or weed control at 500 g/ha [7, 10]	pest or weed control at 500 g/ha [8, 10]	pest or weed control at 500 g/ha [9, 10]	pest or weed control at 500 g/ha ([1]; post-emergence)	pest or weed control at 500 g/ha ([2]; post-emergence)	pest or weed control at 500 g/ha ([3]; post-emergence)	pest or weed control at 500 g/ha ([4]; post-emergence)	pest or weed control at 500 g/ha ([5]; post-emergence)	pest or weed control at 500 g/ha ([6]; post-emergence)	pest or weed control at 500 g/ha ([7]; post-emergence)	pest or weed control at 500 g/ha ([8]; post-emergence)	pest or weed control at 500 g/ha ([9]; post-emergence)
O=C(O)CC[n+]1ccc(C(=O)NC2CC2(F)F)cn1 (stereo not drawn) [Compound A95]	60%	100%	100%	100%	100%	60%	100%	100%	80%	–	–	–	–	–	–	–	–	–
O=C(Nc1ccccc1)c1cc[n+](CCS(=O)(=O)[O-])nc1 [Compound A7]	20%	90%	60%	30%	20%	10%	100%	40%	20%	–	–	–	–	–	–	–	–	–
CCNC(=O)c1cc[n+](CCP(=O)(OCC)OCC)nc1 [Compound A87]	–	–	–	–	–	–	–	–	–	10%	100%	40%	60%	10%	30%	100%	20%	0%
COCCNC(=O)c1cc[n+](CCCOS(=O)(=O)[O-])nc1 [Compound A138]	60%	70%	60%	80%	70%	60%	30%	60%	30%	–	–	–	–	–	–	–	–	–
CCNC(=O)c1cc[n+](CC[C@H](N)C(=O)O)nc1 [Compound A91, [(1S)-1-carboxy-3-[4-(ethylcarbamoyl)pyridazin-1-ium-1-yl]propyl]ammonium dichloride]	60%	50%	20%	70%	60%	30%	70%	70%	0%	–	–	–	–	–	–	–	–	–
CC(CC(=O)O)[n+]1ccc(C(=O)NC2(C#N)CC2)cn1 (stereo not drawn) [Compound A62]	70%	90%	100%	70%	70%	30%	100%	90%	80%	–	–	–	–	–	–	–	–	–
O=C(O)CC[n+]1ccc(C(=O)NCCc2nccs2)cn1 [Compound A143]	50%	90%	50%	80%	60%	40%	100%	100%	40%	–	–	–	–	–	–	–	–	–
N#CCNC(=O)c1cc[n+](CCC(=O)O)nc1 [Compound A90]	70%	90%	100%	100%	100%	80%	100%	100%	100%	–	–	–	–	–	–	–	–	–
O=C(O)CC[n+]1ccc(C(=O)NCC(F)(F)F)cn1 [Compound A47]	30%	90%	100%	90%	100%	90%	100%	20%	100%	–	–	–	–	–	–	–	–	–
